Data as given in US20260022143A1, “Cyclic Peptide Inhibitors of IL-23” (JANSSEN PHARMACEUTICA NV, priority 2022, published 2026).
Where a name gives a salt, the structure may show the parent alone. Starred links: 1 amine or outer side, 2 acyl side, 3 side chain; linkers in the order of their positions; H or OH if unused. Positions of bridges follow the written chain, without caps; N, C: chain ends. Non-standard residues stand in square brackets, D forms with d. Residues, ends and D or L forms follow the SMILES beside them. Groups on a side chain read outwards from the residue. *: point of attachment. Me3N+(CH2)2O(CH2)2O(CH2)2CO = C[N+](C)(C)CCOCCOCCC(=O)*; Ala(1-Me-3-pyridinium) = C[n+]1cccc(C[C@H](N)C(=O)O)c1; Trp(7-Me) = Cc1cccc2c(C[C@H](N)C(=O)O)c[nH]c12; dLys(Me3) = C[N+](C)(C)CCCC[C@@H](N)C(=O)O; Dab(NMeAc) = CC(=O)N(C)CC[C@H](N)C(=O)O; Ac6c(4,4-F2) = NC1(C(=O)O)CCC(F)(F)CC1; γGlu = O=C(O)[C@H](CCC(=O)[*:2])N[*:1]; 2Nal = N[C@@H](Cc1ccc2ccccc2c1)C(=O)O; AEF = NCCOc1ccc(C[C@H](N)C(=O)O)cc1; 3Pal = N[C@@H](Cc1cccnc1)C(=O)O; Myristoyl = CCCCCCCCCCCCCC(=O)*; Lys(Me) = CNCCCC[C@H](N)C(=O)O; Pen = CC(C)(S)[C@H](N)C(=O)O; X85 = C[N+](C)(C)CCO/N=C/C*; X8 = C[N+](C)(C)CCCCCCCC*; Thp = NC1(C(=O)O)CCOCC1; X3 = C[N+](C)(C)CCCCC*; X72 = C[N+](C)(C)CCCC*; AEEA = NCCOCCOCC(=O)O; Tfa = O=C(C(F)(F)F)*; Sar = CNCC(=O)O

Test: Exposed Polar Surface Area (EPSA)
Assay type: physicochemical
Conditions: SFC on Chirex 3014 column; sample 1 mM DMSO stock
Outline: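 EPSA, in Å^2, is read from SFC retention time through a linear relationship established with eight calibration standards. Separation uses a Chirex 3014 stationary phase, 35 °C, 14 MPa back pressure, and a 5–60% methanol/ammonium formate modifier gradient in CO2.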

Row | EPSA | Compound
1 | 142.87 Å^2 | CC(=O)N(C)CCCC[C@@H]1NC(=O)[C@H](Cc2c[nH]c3c(C)cccc23)NC(=O)[C@H]([C@@H](C)O)NC(=O)[C@H](CC(=O)N(C)C)NC(=O)[C@@H](NC(=O)CCOCCOCC[N+](C)(C)C)C(C)(C)SSC(C)(C)[C@@H](C(=O)N[C@@H](Cc2ccc(OCC3CCC([N+](C)(C)C)CC3)cc2)C(=O)N[C@@H](Cc2ccc3ccccc3c2)C(=O)NC2(C(=O)N[C@@H](CCCCN(C)C(C)=O)C(=O)N[C@@H](CC(N)=O)C(=O)N[C@@H](Cc3cccnc3)C(=O)N(C)CC(=O)N(C)C)CCOCC2)NC1=O (single isomer, unassigned) [compound 222, cPEG3aCO-Pen(3)-N(N(Me)2)-T-7MeW-K(NMeAc)-Pen(3)-ACHMF-2Nal-THP-K(NMeAc)-N-3Pya-Sar-CON(Me)2]

Same assay, conditions: SFC on Chirex 3014 column; sample 1 mM DMSO stock; read-out: EPSA

Row | Compound | EPSA
2 | CC(=O)NCCCC[C@H](NC(=O)C1(NC(=O)[C@H](Cc2ccc3ccccc3c2)NC(=O)[C@H](Cc2ccc(OCCN)cc2)NC(=O)[C@H]2NC(=O)[C@H](CCN(C)C(C)=O)NC(=O)[C@H](Cc3c[nH]c4c(C)cccc34)NC(=O)[C@H]([C@@H](C)O)NC(=O)[C@H](CC(N)=O)NC(=O)[C@@H](NC(=O)C(F)(F)F)C(C)(C)SSC2(C)C)CCOCC1)C(=O)N[C@@H](CC(N)=O)C(=O)N[C@@H](Cc1ccc[n+](C)c1)C(=O)N(C)CC(N)=O [compound 51] (Tfa-[Pen]NT[Trp(7-Me)][Dab(NMeAc)][Pen][AEF][2Nal][Thp]K(Ac)N[Ala(1-Me-3-pyridinium)][Sar]-NH2; disulfide 1-6) | 156 A^2
3 | CC(=O)NCCCC[C@@H]1NC(=O)[C@H](Cc2c[nH]c3c(C)cccc23)NC(=O)[C@H]([C@@H](C)O)NC(=O)[C@H](CC(N)=O)NC(=O)[C@@H](NC(=O)[C@@H](CCCC[N+](C)(C)C)NC(C)=O)C(C)(C)SSC(C)(C)[C@@H](C(=O)N[C@@H](Cc2ccc(OCCCCC[N+](C)(C)C)cc2)C(=O)N[C@@H](Cc2ccc3ccccc3c2)C(=O)NC2(C(=O)N[C@@H](CCCCNC(C)=O)C(=O)N[C@@H](CC(N)=O)C(=O)N[C@@H](Cc3cccnc3)C(=O)N(C)CC(N)=O)CCOCC2)NC1=O [compound 450, MeCO-k(Me)3-Pen(3)-N-T-7MeW-K(Ac)-Pen(3)-TMAPF-2Nal-THP-K(Ac)-N-3Pya-Sar-CONH2] (Ac-[dLys(Me3)][Pen]NT[Trp(7-Me)]K(Ac)[Pen]Y(X3)[2Nal][Thp]K(Ac)N[3Pal][Sar]-NH2; disulfide 2-7) | 165 A^2
4 | CC(=O)NCCCC[C@@H]1NC(=O)[C@H](Cc2c[nH]c3c(C)cccc23)NC(=O)[C@H]([C@@H](C)O)NC(=O)[C@H](CC(N)=O)NC(=O)[C@@H](NC(=O)C(F)(F)F)C(C)(C)SSC(C)(C)[C@@H](C(=O)N[C@@H](Cc2ccc(OCCN)cc2)C(=O)N[C@@H](Cc2ccc3ccccc3c2)C(=O)NC2(C(=O)N[C@@H](CCCCNC(C)=O)C(=O)N[C@@H](CC(N)=O)C(=O)N[C@@H](Cc3cccnc3)C(=O)N(C)CC(N)=O)CCC(F)(F)CC2)NC1=O [compound 50] (Tfa-[Pen]NT[Trp(7-Me)]K(Ac)[Pen][AEF][2Nal][Ac6c(4,4-F2)]K(Ac)N[3Pal][Sar]-NH2; disulfide 1-6 (inferred)) | 162 A^2
5 | CC(=O)N(C)CCCC[C@@H]1NC(=O)[C@H](Cc2c[nH]c3c(C)cccc23)NC(=O)[C@H]([C@@H](C)O)NC(=O)[C@H](CC(=O)N(C)C)NC(=O)[C@@H](NC(=O)CCOCCOCC[N+](C)(C)C)C(C)(C)SSC(C)(C)[C@@H](C(=O)N[C@@H](Cc2ccc(OC/C=N/OCC[N+](C)(C)C)cc2)C(=O)N[C@@H](Cc2ccc3ccccc3c2)C(=O)NC2(C(=O)N[C@@H](CCCCN(C)C(C)=O)C(=O)N[C@@H](CC(N)=O)C(=O)N[C@@H](Cc3cccnc3)C(=O)N(C)CC(=O)N(C)C)CCOCC2)NC1=O [compound 305, cPEG3aCO-Pen(3)-N(N(Me)2)-T-7MeW-K(NMeAc)-Pen(3)-Y(OEOXlMECh)-2Nal-THP-K(NMeAc)-N-3Pya-Sar-CON(Me)2] ({Me3N+(CH2)2O(CH2)2O(CH2)2CO}-[Pen]D(NMe2)T[Trp(7-Me)][Lys(Me)](Ac)[Pen]Y(X85)[2Nal][Thp][Lys(Me)](Ac)N[3Pal][Sar]-NMe2; disulfide 1-6 (inferred)) | 153 A^2
6 | CC(=O)N[C@@H]1C(=O)N[C@@H](CC(N)=O)C(=O)N[C@@H]([C@@H](C)O)C(=O)N[C@@H](Cc2c[nH]c3c(C)cccc23)C(=O)N[C@@H](CCC(=O)N(C)C)C(=O)N[C@H](C(=O)N[C@@H](Cc2ccc(OCCN)cc2)C(=O)N[C@@H](Cc2ccc3ccccc3c2)C(=O)NC2(C(=O)N[C@@H](CCC(=O)N(C)C)C(=O)N[C@@H](CC(N)=O)C(=O)N[C@@H](Cc3cccnc3)C(=O)N(C)CC(N)=O)CCOCC2)C(C)(C)SSC1(C)C [compound 138] (Ac-[Pen]NT[Trp(7-Me)]E(NMe2)[Pen][AEF][2Nal][Thp]E(NMe2)N[3Pal][Sar]-NH2; disulfide 1-6 (inferred)) | 159 A^2
7 | CC(=O)NCCCC[C@@H]1NC(=O)[C@H](Cc2c[nH]c3c(C)cccc23)NC(=O)[C@H]([C@@H](C)O)NC(=O)[C@H](CC(N)=O)NC(=O)[C@@H](NC(=O)C(F)(F)F)C(C)(C)SSC(C)(C)[C@@H](C(=O)N[C@@H](Cc2ccc(OCCN)cc2)C(=O)N[C@@H](Cc2ccc3ccccc3c2)C(=O)NC2(C(=O)N[C@@H](CCCCNC(C)=O)C(=O)N[C@@H](CC(N)=O)C(=O)N[C@@H](Cc3cccnc3)C(=O)N(C)CC(=O)N(C)C)CCOCC2)NC1=O [compound 74] (Tfa-[Pen]NT[Trp(7-Me)]K(Ac)[Pen][AEF][2Nal][Thp]K(Ac)N[3Pal][Sar]-NMe2; disulfide 1-6 (inferred)) | 154 A^2
8 | CC(=O)NCCCC[C@@H]1NC(=O)[C@H](Cc2c[nH]c3c(C)cccc23)NC(=O)[C@H]([C@@H](C)O)NC(=O)[C@H](CC(N)=O)NC(=O)[C@@H](NC(=O)CCOCCOCC[N+](C)(C)C)C(C)(C)SSC(C)(C)[C@@H](C(=O)N[C@@H](Cc2ccc(OCCCCC[N+](C)(C)C)cc2)C(=O)N[C@@H](Cc2ccc3ccccc3c2)C(=O)NC2(C(=O)N[C@@H](CCC(=O)O)C(=O)N[C@@H](CC(N)=O)C(=O)N[C@@H](Cc3cccnc3)C(=O)N(C)CC(N)=O)CCOCC2)NC1=O [compound 427, cPEG3aCO-Pen(3)-N-T-7MeW-K(Ac)-Pen(3)-TMAPF-2Nal-THP-E-N-3Pya-Sar-CONH2] ({Me3N+(CH2)2O(CH2)2O(CH2)2CO}-[Pen]NT[Trp(7-Me)]K(Ac)[Pen]Y(X3)[2Nal][Thp]EN[3Pal][Sar]-NH2; disulfide 1-6) | 168 A^2

The remaining lines, values ahead:

Row | EPSA | Compound
9 | 142 A^2 | CC(=O)N(C)CCCC[C@@H]1NC(=O)[C@H](Cc2c[nH]c3c(C)cccc23)NC(=O)[C@H]([C@@H](C)O)NC(=O)[C@H](CC(=O)N(C)C)NC(=O)[C@@H](NC(=O)CCOCCOCC[N+](C)(C)C)C(C)(C)SSC(C)(C)[C@@H](C(=O)N[C@@H](Cc2ccc(OCCCC[N+](C)(C)C)cc2)C(=O)N[C@@H](Cc2ccc3ccccc3c2)C(=O)NC2(C(=O)N[C@@H](CCCCN(C)C(C)=O)C(=O)N[C@@H](CC(N)=O)C(=O)N[C@@H](Cc3cccnc3)C(=O)N(C)CC(=O)N(C)C)CCOCC2)NC1=O [compound 226, cPEG3aCO-Pen(3)-N(N(Me)2)-T-7MeW-K(NMeAc)-Pen(3)-TMA4F-2Nal-THP-K(NMeAc)-N-3Pya-Sar-CON(Me)2] ({Me3N+(CH2)2O(CH2)2O(CH2)2CO}-[Pen]D(NMe2)T[Trp(7-Me)][Lys(Me)](Ac)[Pen]Y(X72)[2Nal][Thp][Lys(Me)](Ac)N[3Pal][Sar]-NMe2; disulfide 1-6)
10 | 189 A^2 | CCCCCCCCCCCCCC(=O)N[C@@H](CCC(=O)NCCOCCOCC(=O)NCCOCCOCC(=O)NCCCC[C@H](NC(=O)C1(NC(=O)[C@H](Cc2ccc3ccccc3c2)NC(=O)[C@H](Cc2ccc(OCCCCC[N+](C)(C)C)cc2)NC(=O)[C@H]2NC(=O)[C@H](CCCCN(C)C(C)=O)NC(=O)[C@H](Cc3c[nH]c4c(C)cccc34)NC(=O)[C@H]([C@@H](C)O)NC(=O)[C@H](CC(=O)N(C)C)NC(=O)[C@@H](NC(=O)[C@@H](CCCCNC(=O)COCCOCCNC(=O)COCCOCCNC(=O)CC[C@H](NC(=O)CCCCCCCCCCCCC)C(=O)O)NC(=O)CCOCCOCC[N+](C)(C)C)C(C)(C)SSC2(C)C)CCOCC1)C(=O)N[C@@H](CC(N)=O)C(=O)N[C@@H](Cc1cccnc1)C(=O)N(C)CC(=O)N(C)C)C(=O)O [compound 395, cPEG3aCO-k(PEG2PEG2gEC14)-Pen(3)-N(N(Me)2)-T-7MeW-K(NMeAc)-Pen(3)-TMAPF-2Nal-THP-K(PEG2PEG2gEC14)-N-3Pya-Sar-CON(Me)2] ({Me3N+(CH2)2O(CH2)2O(CH2)2CO}-[dK]([AEEA-AEEA-γGlu-Myristoyl])[Pen]D(NMe2)T[Trp(7-Me)][Lys(Me)](Ac)[Pen]Y(X3)[2Nal][Thp]K([AEEA-AEEA-γGlu-Myristoyl])N[3Pal][Sar]-NMe2; disulfide 2-7)
11 | 182 A^2 | CC(=O)NCCCC[C@@H]1NC(=O)[C@H](Cc2c[nH]c3c(C)cccc23)NC(=O)[C@H]([C@@H](C)O)NC(=O)[C@H](CC(N)=O)NC(=O)[C@@H](NC(=O)COCCOCCNC(=O)COCCOCCNC(=O)COc2ccc(-c3ccc(F)cc3F)cc2C(=O)O)C(C)(C)SSC(C)(C)[C@@H](C(=O)N[C@@H](Cc2ccc(OCCCCC[N+](C)(C)C)cc2)C(=O)N[C@@H](Cc2ccc3ccccc3c2)C(=O)NC2(C(=O)N[C@@H](CCCCN(C)C(C)=O)C(=O)N[C@@H](CC(N)=O)C(=O)N[C@@H](Cc3cccnc3)C(=O)N(C)CC(N)=O)CCOCC2)NC1=O [compound 490, DFNPEG2PEG2CO-Pen(3)-N-T-7MeW-K(Ac)-Pen(3)-TMAPF-2Nal-THP-K(Ac)-N-3Pya-Sar-CONH2]
12 | 150 A^2 | CC(=O)N(C)CCCC[C@@H]1NC(=O)[C@H](Cc2c[nH]c3c(C)cccc23)NC(=O)[C@H]([C@@H](C)O)NC(=O)[C@H](CC(=O)N(C)C)NC(=O)[C@@H](NC(=O)CCOCCOCC[N+](C)(C)C)C(C)(C)SSC(C)(C)[C@@H](C(=O)N[C@@H](Cc2ccc(OCCCCCCCC[N+](C)(C)C)cc2)C(=O)N[C@@H](Cc2ccc3ccccc3c2)C(=O)NC2(C(=O)N[C@@H](CCCCN(C)C(C)=O)C(=O)N[C@@H](CC(N)=O)C(=O)N[C@@H](Cc3cccnc3)C(=O)N(C)CC(=O)N(C)C)CCOCC2)NC1=O [compound 295, cPEG3aCO-Pen(3)-N(N(Me)2)-T-7MeW-K(NMeAc)-Pen(3)-TMA8F-2Nal-THP-K(NMeAc)-N-3Pya-Sar-CON(Me)2] ({Me3N+(CH2)2O(CH2)2O(CH2)2CO}-[Pen]D(NMe2)T[Trp(7-Me)][Lys(Me)](Ac)[Pen]Y(X8)[2Nal][Thp][Lys(Me)](Ac)N[3Pal][Sar]-NMe2; disulfide 1-6)
